Laboratory results published in the supplement of paper PMC10307832.

Assays:
Experiment in all cases: relative viability (nuclei count vs DMSO), 5 days (fraction); higher = more cells survive
[1] = compound: C1CNCCC1C2=CC(=NN2)C3=CC=NC=C3 + CC(=O)Nc1cccc(-n2c(=O)n(C3CC3)c(=O)c3c(Nc4ccc(I)cc4F)n(C)c(=O)c(C)c32)c1 [Trametinib] (partner 0.02 µM)
Outline: (§1)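 Relative viability is defined as nuclei in treated wells over nuclei in vehicle wells. Duplicate plates were run and medians reported. Lung cancer cell lines in 1536-well plates were dosed by pin tool one day after seeding, with one drug or with a fixed anchor-drug dose plus five library-drug doses (not always all listed) in √10 steps, and nuclei were counted after 5 days.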

[2] = compound: C1CNCCC1C2=CC(=NN2)C3=CC=NC=C3 + Nc1nc2[nH]cc(CCc3ccc(C(=O)N[C@@H](CCC(=O)O)C(=O)O)cc3)c2c(=O)[nH]1 [Pemetrexed] (partner 0.2 µM)
Outline: as §1

Tanzisertib + Alpelisib = compound: O[C@H]1CC[C@H](Nc2ncc3nc(Nc4c(F)cc(F)cc4F)n([C@H]4CCOC4)c3n2)CC1 [Tanzisertib] + Cc1nc(NC(=O)N2CCC[C@H]2C(N)=O)sc1-c1ccnc(C(C)(C)C(F)(F)F)c1 [Alpelisib] (partner 2 µM)
Outline: as §1

Tanzisertib + Decitabine = compound: O[C@H]1CC[C@H](Nc2ncc3nc(Nc4c(F)cc(F)cc4F)n([C@H]4CCOC4)c3n2)CC1 [Tanzisertib] + Nc1ncn([C@H]2C[C@H](O)[C@@H](CO)O2)c(=O)n1 [Decitabine] (partner 2 µM)
Outline: as §1

Cell Line | relative viability ([1]; first compound 0.08 µM) | relative viability ([1]; first compound 0.8 µM) | relative viability ([1]; first compound 2.53 µM) | relative viability ([1]; first compound 8 µM) | relative viability ([2]; first compound 0.08 µM) | relative viability ([2]; first compound 0.8 µM) | relative viability ([2]; first compound 2.53 µM) | relative viability ([2]; first compound 8 µM) | relative viability (Tanzisertib + Alpelisib; first compound 0.253 µM) | relative viability (Tanzisertib + Alpelisib; first compound 0.8 µM) | relative viability (Tanzisertib + Alpelisib; first compound 2.53 µM) | relative viability (Tanzisertib + Alpelisib; first compound 8 µM) | relative viability (Tanzisertib + Decitabine; first compound 0.08 µM) | relative viability (Tanzisertib + Decitabine; first compound 0.253 µM) | relative viability (Tanzisertib + Decitabine; first compound 0.8 µM) | relative viability (Tanzisertib + Decitabine; first compound 2.53 µM) | relative viability (Tanzisertib + Decitabine; first compound 8 µM) | relative viability (Tanzisertib + Alpelisib; first compound 0.08 µM)
LCLC-97TM1 | 0.191 | 0.204 | 0.172 | 0.193 | 0.186 | 0.161 | 0.17 | 0.173 | 0.276 | 0.271 | 0.238 | 0.292 | 0.25 | 0.264 | 0.201 | 0.245 | 0.228 | 
NCI-H1299 |  |  |  |  |  |  |  |  | 1.05 | 1.08 | 1.01 | 1.14 |  |  |  |  |  | 1.07
NCI-H3122 | 0.207 | 0.222 | 0.209 | 0.238 | 0.193 | 0.212 | 0.197 | 0.202 | 0.735 | 0.844 | 0.731 | 0.782 | 0.43 | 0.409 | 0.412 | 0.366 | 0.439 | 0.965
NCI-H1395 | 0.905 | 0.992 | 0.966 | 1.16 | 0.782 | 0.803 | 1.03 | 0.861 | 1.14 | 1.04 | 1.04 | 0.983 | 0.798 | 0.726 | 0.747 | 0.737 | 0.72 | 1.11
NCI-H2009 | 0.248 | 0.257 | 0.376 | 0.298 | 0.958 | 1.05 | 0.992 | 1.03 | 1.2 | 1.14 | 1.19 | 1.17 | 0.366 | 0.437 | 0.387 | 0.355 | 0.377 | 1.24
NCI-H1651 | 0.816 | 0.855 | 0.897 | 0.815 | 0.592 | 0.597 | 0.608 | 0.575 | 0.934 | 1.01 | 0.988 | 0.817 | 0.615 | 0.66 | 0.474 | 0.591 | 0.537 | 1.17
HARA | 0.616 | 0.709 | 0.762 | 1.09 | 0.238 | 0.236 | 0.228 | 0.159 | 0.762 | 0.852 | 0.795 | 0.842 | 0.602 | 0.579 | 0.504 | 0.566 | 0.539 | 0.752
NCI-H1944 | 0.333 | 0.376 | 0.389 | 0.411 | 0.564 | 0.595 | 0.67 | 0.557 | 0.822 | 0.822 | 0.789 | 0.758 | 0.453 | 0.416 | 0.43 | 0.397 | 0.459 | 0.876
NCI-H2347 | 0.264 | 0.266 | 0.326 | 0.262 | 0.441 | 0.409 | 0.422 | 0.422 | 1.04 | 1.1 | 1.16 | 1.11 | 0.634 | 0.657 | 0.701 | 0.635 | 0.648 | 1.17
201T | 0.712 | 0.731 | 0.753 | 0.675 | 0.349 | 0.384 | 0.332 | 0.352 | 1.04 | 1.01 | 0.993 | 1.01 | 0.862 | 0.902 | 0.853 | 0.857 | 0.85 | 1.03
PC-14 | 0.64 | 0.761 | 0.903 | 0.763 | 0.107 | 0.134 | 0.138 | 0.131 | 0.947 | 0.943 | 0.873 | 0.57 | 0.261 | 0.23 | 0.212 | 0.192 | 0.202 | 0.942
Calu-6 |  |  |  |  |  |  |  |  | 0.96 | 0.934 | 0.994 | 0.988 |  |  |  |  |  | 1.12
NCI-H1703 |  |  |  |  |  |  |  |  | 0.251 | 0.328 | 0.309 | 0.303 |  |  |  |  |  | 0.409
NCI-H1650 | 0.506 | 0.558 | 0.569 | 0.578 | 0.374 | 0.422 | 0.331 | 0.381 |  |  |  |  | 0.408 | 0.452 | 0.393 | 0.384 | 0.453 | 
NCI-H727 | 0.386 | 0.366 | 0.421 | 0.364 |  |  |  |  | 0.463 | 0.654 | 0.515 | 0.684 | 0.941 | 0.875 | 0.702 | 0.89 | 0.755 | 0.511
NCI-H2342 | 0.716 | 0.798 | 0.794 | 1.04 | 0.725 | 0.711 | 0.759 | 0.787 |  |  |  |  | 0.78 | 0.778 | 0.694 | 0.781 | 0.815 | 
ChaGo-K-1 | 0.916 | 0.85 | 0.897 | 0.807 | 0.262 | 0.261 | 0.269 | 0.298 |  |  |  |  | 0.519 | 0.531 | 0.493 | 0.512 | 0.537 | 
CAL-12T | 0.351 | 0.363 | 0.363 | 0.419 | 1.22 | 1.32 | 1.21 | 1.09 | 1.14 | 1.09 | 1.4 | 1.17 |  |  |  |  |  | 1.32
NCI-H2228 | 0.56 | 0.37 | 0.696 | 0.7 | 0.31 | 0.373 | 0.384 | 0.356 | 0.67 | 0.806 | 0.737 | 0.539 |  |  |  |  |  | 0.934
SW 900 | 0.751 |  | 0.901 | 0.836 | 0.497 |  | 0.5 | 0.454 |  |  |  |  |  | 0.485 | 0.412 | 0.328 | 0.438 | 
ABC-1 |  |  |  |  |  |  |  |  | 1.06 | 1.03 | 1.3 | 1.09 | 1.03 | 0.958 | 0.976 | 1.18 | 0.836 | 1.1
NCI-H1648 | 0.464 | 0.483 |  | 0.516 | 0.671 | 0.57 |  | 0.828 |  |  |  |  | 0.487 | 0.6 | 0.613 | 0.524 | 0.376 | 
IA-LM |  |  |  |  |  |  |  |  | 0.802 | 0.83 | 0.85 | 0.956 |  |  |  |  |  | 0.908
A549 |  |  |  |  |  |  |  |  | 0.648 | 0.709 | 0.706 | 0.712 | 0.246 | 0.25 | 0.277 | 0.267 | 0.127 | 0.759
